# Source: US20230096897A1, “Lymphocyte Population and Methods for Producing Same” (AVM Biotechnology, LLC, priority 2020, published 2023)
# Entries after “also recorded” stand apart in the source; their conditions may differ. Where two headings read alike, the source gives them in different places.
# How the values were obtained:
# A20 B cell lymphoma [1] = experiment: A20 lymphoma study AVM_CANMOD_03 (dose response); assay type: in vivo, mouse
# Experimental: In a second study (“AVM_CANMOD_03”), BALB/c mice (n=5 per group) were dosed with increasing concentrations of AVM0703 HED DP (7, 18, and 26 mg/kg) on Days 9, 16, 24, and 31 after tumor inoculation. Treatment started when the tumors were approximately […], as opposed to well-established tumors of 150 mm^3 as in study AVM_CANMOD_01.
# Based on evidence of pseudogrowth in tumors from AVM0703-treated mice in study AVM_CANMOD_01, tumors (n=2 per group) were sent to HistoTox Labs for slicing and immunohistochemistry. Hematoxylin and eosin stains identified several regions of necrosis and the slides were scored from 0 to 5 depending on severity.
# [2] = tested on: peripheral blood mononuclear cells or single cell splenocytes; experiment: In vitro apoptosis of mouse blood mononuclear cells and splenocytes; assay type: cell-based; settings: up to 500 micromolar; out to 72 hours
# Experimental: Mononuclear cells from peripheral blood of naïve male C57Bl/6 mice or single cell splenocytes were incubated with equivalent concentrations of AVM0703 as the peak blood concentrations of acute high dose AVM0703 achieve in vivo.
# Blood and spleens were taken from naïve C57B16 mice. Mononuclear cells were isolated from blood and single cell splenocytes were isolated from the spleen. […] Therefore, the complete in vivo T and B lymphocyte ablation appears to be mediated by the AVM-NKT, and not a receptor based mechanism such as activation of a glucocorticoid receptor.
# A20 cells = experiment: In vitro apoptosis of A20 cells; assay type: cell-based, mouse; settings: 72 hours after high dose dexamethasone treatment in vitro
# [3] = tested on: peripheral blood lymphocytes
# Experimental: For initial lymphodepletion studies, naïve C57Bl/6 mice were treated with 18 mg/kg HED DP by oral gavage. Male C57BL/6 mice were obtained from Taconic Bioscience (Germantown, N.Y.) and acclimated to laboratory conditions for at least one week. […] When mice reached study timepoint, they were euthanized as follows. Mice were anesthetized with isoflurane gas. Once anesthetized, blood was drawn via cardiac puncture and place immediately in heparin-lined microtubes. 10 mL of 5 U/mL of Heparin/PBS was used for infused by slow push for retrograde perfusion via the abdominal aorta to flush out all remaining blood from the vasculature. […] The remaining blood was sent to Phoenix Labs (Mukilteo, Wash.) for Complete Blood Counts and Clinical Chemistries
# AVM-NKT cells = settings: for Time after treatment at which AVM-NKT cells appear in peripheral blood: high doses of glucocorticoid receptor agonists
# [4] = pharmacodynamic (biologic) half-life; cited from earlier work
# female NOD mice [5] = experiment: Prevention or delay of hyperglycemia in spontaneously diabetic female NOD mice; assay type: in vivo, mouse; settings: for First Onset of hyperglycemia (weeks of age): dosing from 10 weeks of age, AVM0703 single oral HED 18 or 30 mg/kg, cyclosporine 5 then 10 mg/kg twice weekly, venetoclax 25 mg/kg; for % Hyperglycemic at 22 wks of age / Median Time to diabetes (days after 10 wks of age): same groups
# Experimental: Female NOD mice were ordered at 9 weeks of age.
# Body weights and blood glucose levels were monitored weekly. Body condition was monitored three times per week. Oral glucose tolerance was determined in all surviving mice who reached 30 weeks of age. Remaining mice were necropsied and autoreactive lymphocytes in the pancreas and adjacent lymph nodes were determined by flow cytometry. Pancreatitis was determined by H&E staining (8 out of 15 per group). Pancreatic Beta cell surface area was measured by staining for insulin. […] Pancreas and pancreas lymph nodes were examined for autoreactive, insulin-specific CD4+ T cells by using a magnetic enrichment method together with tetramer reagents.
# [6] = tested on: CD3high, CD45dim, CD49b+ cells; experiment: Venetoclax pre-treatment before high dose DSP in female NOD mice; assay type: in vivo, mouse; settings: 48 hours
# Experimental: Female NOD mice of 10 weeks of age are treated with 12.5 mg/kg up to 50 mg/kg venetoclax 6-18 hours before oral gavage of a HED 30 mg/kg DSP dose. […] CD3high, CD45dim, CD49b+ cells are reduced from—70 cells/microliter with DSP alone to—40 cells/microliter with 12.5 mg/kg venetoclax pretreatment, to—20 cells/microliter with 25 mg/kg venetoclax pretreatment, to—15 cells/microliter with 50 mg/kg venetoclax pretreatment. Venetoclax is a Bcl-2 inhibitor.
# [7] = tested on: CCRF-CEM human T cell lymphoma; experiment: CCRF-CEM human T cell lymphoma xenograft in NCr nude mice (AVM_CANMOD_06)
# Experimental: A pilot study (“AVM_CANMOD_06”) was performed to investigate anti-tumor efficacy of AVM0703 in a human T cell lymphoma model, CCRF-CEM.
# Tumor volume was assessed 3 times per week and endpoint was defined as either a tumor volume greater than 1500 mm^3 or greater than a 20% loss from initial body weight measurement.
# female NOD mice [8] = experiment: Reversal of early onset and established diabetes in female NOD mice; settings: mouse, in vivo
# Experimental: Female NOD mice are ordered at 9 weeks of age. Blood glucose levels are measured weekly starting at 10 weeks of age. Once a mouse has non-fasting blood glucose above 250 mg/dl, another measure is taken the following day.
# For reversal of new-onset diabetes AVM0703 dosing is started one day after a mouse has had two consecutive days of elevated non-fasting blood glucose levels. Insulin pellets are implanted subcutaneously on the second day of elevated blood glucose levels. For reversal of established diabetes, two consecutive weeks of elevated blood glucose are measured, insulin pellets are implanted on day 8 after the first day of measured elevated blood glucose levels and AVM0703 is dosed on day 14 after the first day of measured elevated blood glucose levels.
# A20 B cell lymphoma [9] = experiment: A20 lymphoma study AVM_CANMOD_05, endpoint analysis subset; assay type: in vivo, mouse
# A20 B cell lymphoma [10] = experiment: A20 lymphoma study AVM_CANMOD_05, lymphodepletion subset
# A20 B cell lymphoma [11] = experiment: A20 lymphoma study AVM_CANMOD_01 (repeat dosing); assay type: in vivo, mouse
# A20 B cell lymphoma [12] = experiment: A20 B-cell lymphoma models, summary of studies; assay type: in vivo, mouse
# From the text: The mouse A20 lymphoma model is a very aggressive tumor model because it employs multiple direct (expression of immunoinhibitory molecule PD-L1, IDO, and IL-10, and lack of expression of CD80 costimulatory molecule) and indirect (downregulation of APC function and induction of Treg cells) immune evasion mechanisms. In addition, in the studies described in the following, AVM0703 was not dosed until A20 tumors were very well-established, at between ˜120 to 400 mm^3 in volume.
# Male BALB/c mice were inoculated subcutaneously in the flank with A20 B lymphoma cells embedded in Matrigel. Tumor volumes were monitored by caliper measurements, and when the tumors were well established at about 150 mm^3, or very well established for study “AVM_CANMOD_05” at about 400 mm^3, mice were treated with AVM0703 at HED doses of 7, 18, 22, or 25 mg/kg. Endpoint is typically defined as tumor volume of 1500 mm^3.
# These mice were pooled and a contingency table analysis was performed using Fisher's exact test.
# [13] = high-dose dexamethasone, naïve mice
# [14] = 18, 22, and 25 mg/kg pooled, n = 40
compound,measurement,setting,value
"C[C@@H]1C[C@H]2[C@@H]3CCC4=CC(=O)C=C[C@]4(C)[C@@]3(F)[C@@H](O)C[C@]2(C)[C@@]1(O)C(=O)COP(=O)(O)O [dexamethasone phosphate, reference compound]",Tumor CD3 expression (immunohistochemistry),"A20 B cell lymphoma [1]; 7, 18, 25 mg/kg DP vs placebo",visually decreased
same,Tumor NKp46 staining,"A20 B cell lymphoma [1]; 7, 18, 25 mg/kg DP vs placebo",visual increase
same,HistoTox Labs Necrosis H&E (0-5),"A20 B cell lymphoma [1]; individual tumors, 18 mg/kg, tumor 158 mm^3 at dosing",greatest degree of necrosis
same,Apoptosis,[2],no in vitro apoptosis was observed
C[C@@H]1C[C@H]2[C@@H]3CCC4=CC(=O)C=C[C@]4(C)[C@@]3(F)[C@@H](O)C[C@]2(C)[C@@]1(O)C(=O)CO [dexamethasone],Apoptosis of A20 cells,A20 cells,about 30%
same,Platelet numbers,[3]; 18 mg/kg HED DP,spared; also recorded: does not affect
same,Number of live hematopoietic stem cells,"[3]; 18 mg/kg HED DP, 6 hours to 35 days",does not significantly alter
same,Basophils,[3]; [13],reduced only at the 6 hour time point
same,Eosinophils,[3]; [13],reduced only at the 24 and 48 hour time points
same,HSCs and MSCs,[3]; [13],spared or increased
same,RBCs,[3]; [13],spared
same,Time after treatment at which AVM-NKT cells appear in peripheral blood,AVM-NKT cells,around 48 hours
same,Time to induction of AVM-NKT cells in the spleen,"AVM-NKT cells; normal mice, after dexamethasone dosing",≤ 48 h
C[C@]12C=CC(=O)C=C1CC[C@@H]1[C@@H]2C(=O)C[C@@]2(C)[C@H]1CC[C@]2(O)C(=O)CO [prednisone],Biologic half-life,[4],about 20 hours
"CC1(C)CCC(CN2CCN(c3ccc(C(=O)NS(=O)(=O)c4ccc(NCC5CCOCC5)c([N+](=O)[O-])c4)c(Oc4cnc5[nH]ccc5c4)c3)CC2)=C(c2ccc(Cl)cc2)C1 [Venetoclax, venetoclax, reference compound]",First Onset of hyperglycemia (weeks of age),female NOD mice [5],14 weeks of age
same,% Hyperglycemic at 22 wks of age,female NOD mice [5],90%
same,Median Time to diabetes (days after 10 wks of age),female NOD mice [5],51 days
same,"CD3high, CD45dim, CD49b+ cells mobilized into the blood",[6]; 12.5 mg/kg venetoclax 6-18 hours before HED 30 mg/kg DSP,40 cells/microliter
same,"CD3high, CD45dim, CD49b+ cells mobilized into the blood",[6]; 25 mg/kg venetoclax 6-18 hours before HED 30 mg/kg DSP,20 cells/microliter
same,"CD3high, CD45dim, CD49b+ cells mobilized into the blood",[6]; 50 mg/kg venetoclax 6-18 hours before HED 30 mg/kg DSP,15 cells/microliter
"C[C@@H]1C[C@H]2[C@@H]3CCC4=CC(=O)C=C[C@]4(C)[C@@]3(F)[C@@H](O)C[C@]2(C)[C@@]1(O)C(=O)CO [AVM0703, dexamethasone]",Mice with significantly delayed onset,female NOD mice [5]; AVM0703 alone,60%
same,Mice in which diabetes was prevented,"female NOD mice [5]; AVM0703 alone, 5 month study",40%
same,First Onset of hyperglycemia (weeks of age),female NOD mice [5],20 weeks of age
same,% Hyperglycemic at 22 wks of age,female NOD mice [5],60%
same,Median Time to diabetes (days after 10 wks of age),female NOD mice [5],113 days
same,Body condition compared with all other groups,female NOD mice [5]; throughout the 5 month study,significantly better body condition
same,Day after tumor inoculation on which one mouse was found dead,[7]; 18 mg/kg weekly,89 days
same,Tumor lysis,[7]; one treated mouse,Significant tumor lysis; also recorded: Evidence of Tumor Lysis Syndrome
same,Body weight loss or poor body condition,female NOD mice [8],without the body weight loss or poor body condition
same,Tumor resorbed,A20 B cell lymphoma [9]; 1 mouse treated at 18 mg/kg,99.5%
same,Overall complete response rate,A20 B cell lymphoma [9]; both subsets of AVM_CANMOD_05,9%
same,MetaMorph Area of Live Tumor,"A20 B cell lymphoma [9]; individual mice, 18 mg/kg",27 AU × 1000
same,MetaMorph Percent Necrotic,"A20 B cell lymphoma [9]; individual mice, 18 mg/kg",69%
same,Glucose levels,"A20 B cell lymphoma [10]; 18 mg/kg HED, did not reach hypoglycemic levels",significantly reduced
same,"Tumor weight, tumor example","A20 B cell lymphoma [10]; 25 mg/kg, placebo example 0.54 g",0.086 g
same,"Tumor volume, tumor example","A20 B cell lymphoma [10]; 25 mg/kg, placebo example 956 mm^3",203.25 mm^3
same,Glucose levels,A20 B cell lymphoma [10]; tumor model,not elevated
same,Mice reaching the 20% body weight loss threshold,"A20 B cell lymphoma [11]; after 46 days and 8 doses, n=5",One mouse
same,Body weight,"A20 B cell lymphoma [11]; repeat 18 mg/kg HED DP dosing, up to 7 doses",Does Not Reduce Body Weight
same,Sudden deaths,"A20 B cell lymphoma [1]; 7, 18, 26 mg/kg",no sudden deaths
same,"Spleen, thymus, colon, pancreas weights","A20 B cell lymphoma [1]; 7, 18, 26 mg/kg, at euthanization",No significant differences
same,Additional median survival compared with placebo,"A20 B cell lymphoma [1]; 18 and 26 mg/kg, not significant",approximately 6 days
same,Tumor necrosis,"A20 B cell lymphoma [1]; A20-3 DRC, 18&26 mg/kg",18&26 mg/kg 50-80% necrotic
same,"HistoTox Labs Necrosis H&E (0-5), Average","A20 B cell lymphoma [12]; 18 mg/kg, n = 15",2.7 n = 15
same,"MetaMorph Area of Live Tumor, Average","A20 B cell lymphoma [12]; 18 mg/kg, n = 18",66^ n = 18 AU × 1000
same,"MetaMorph Percent Necrotic, Average","A20 B cell lymphoma [12]; 18 mg/kg, n = 18",59 n = 18%
same,"MetaMorph Area of Live Tumor, Average","A20 B cell lymphoma [12]; 22 mg/kg, n = 11",87 n = 11 AU × 1000
same,"MetaMorph Percent Necrotic, Average","A20 B cell lymphoma [12]; 22 mg/kg, n = 11",53 n = 11%
same,"MetaMorph Area of Live Tumor, Average","A20 B cell lymphoma [12]; 25 mg/kg, n = 11",77 n = 11 AU × 1000
same,"MetaMorph Percent Necrotic, Average","A20 B cell lymphoma [12]; 25 mg/kg, n = 11",63 n = 11%
same,"MetaMorph Area of Live Tumor, Average",A20 B cell lymphoma [12]; [14],75 n = 40 AU × 1000
same,"MetaMorph Percent Necrotic, Average",A20 B cell lymphoma [12]; [14],59 n = 40%
C[C@H]1C[C@H]2[C@@H]3CCC4=CC(=O)C=C[C@]4(C)[C@@]3(F)[C@@H](O)C[C@]2(C)[C@@]1(O)C(=O)CO [betamethasone],Time after treatment at which AVM-NKT cells appear in peripheral blood,AVM-NKT cells,around 48 hours
C[C@@H]1C[C@H]2[C@@H]3CCC4=CC(=O)C=C[C@]4(C)[C@@]3(F)[C@@H](O)C[C@]2(C)[C@@]1(O)C(=O)CO [dexamethasone base],Induction of AVM-NKT cells (dose escalation),AVM-NKT cells; 15 mg/kg HED,particularly robust production
same,Induction of AVM-NKT cells (dose escalation),AVM-NKT cells; 6+6 mg/kg HED dosing schedule,particularly robust production
same,Induction of AVM-NKT cells (dose escalation),AVM-NKT cells; single dose between 6-12 mg/kg HED,can induce AVM-NKT cells
